Test results from patent US20200247808A1, “Heterocyclic Tec-Family Kinase Inhibitors” (GB005, Inc., priority 2015, published 2020).
Where two headings read alike, the source gives them in different places.

How the values were obtained:
human BTK = target: T1, human BTK (Homo sapiens, UniProt Q06187); test: BTK kinase inhibition, KinaseProfiler radiometric protein kinase assay (Eurofins); type: biochemical
T1 construct: purchased Eurofins Pharma Discovery Services UK Limited (contract assay, KinaseProfiler)
T1 sequence (Q06187 whole entry): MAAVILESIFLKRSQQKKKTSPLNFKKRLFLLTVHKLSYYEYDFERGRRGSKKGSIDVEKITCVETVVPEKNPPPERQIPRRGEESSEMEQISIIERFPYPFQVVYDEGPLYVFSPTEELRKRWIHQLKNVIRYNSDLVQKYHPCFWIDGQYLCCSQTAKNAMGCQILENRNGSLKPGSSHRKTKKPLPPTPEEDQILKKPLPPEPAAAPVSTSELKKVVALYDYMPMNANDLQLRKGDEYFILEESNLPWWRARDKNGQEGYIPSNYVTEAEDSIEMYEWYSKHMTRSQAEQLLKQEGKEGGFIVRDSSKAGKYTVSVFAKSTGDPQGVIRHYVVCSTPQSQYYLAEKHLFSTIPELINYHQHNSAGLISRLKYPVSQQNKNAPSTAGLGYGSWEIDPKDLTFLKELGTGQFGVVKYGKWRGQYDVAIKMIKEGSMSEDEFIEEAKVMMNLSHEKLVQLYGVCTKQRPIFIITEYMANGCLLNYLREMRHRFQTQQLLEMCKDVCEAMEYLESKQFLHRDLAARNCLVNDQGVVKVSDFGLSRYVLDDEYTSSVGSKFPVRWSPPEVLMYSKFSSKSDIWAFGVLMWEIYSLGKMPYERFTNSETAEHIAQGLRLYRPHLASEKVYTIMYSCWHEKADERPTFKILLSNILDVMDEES
Protocol: In vitro potency of selected compound was defined against human BTK, EGFR, and ErbB2 kinases using Kinase Profiler radiometric protein kinase assays performed at Eurofins Pharma Discovery Services UK Limited.
Each kinase is diluted in buffer and all compounds were prepared to 50x final assay concentration in 100% DMSO. This working stock of the compound was added to the assay well as the first component in the reaction, followed by the remaining components as detailed in the assay protocol listed above. The reaction was initiated by the addition of the MgATP mix. […] (specific activity approx. 500 cpm/pmol, concentration as required) and variable test article concentrations. […] The reaction was stopped by the addition of 3% phosphoric acid solution. 10 μL of the reaction is then spotted onto a P30 filtermat and washed three times for 5 minutes in 75 mM phosphoric acid and once in methanol prior to drying and scintillation counting. In addition positive control wells contain all components of the reaction, except the compound of interest; however, DMSO (at a final concentration of 2%) were included in these wells to control for solvent effects as well as blank wells contain all components of the reaction, with a reference inhibitor replacing the compound of interest. This abolishes kinase activity and establishes the base-line (0% kinase activity remaining). The potency of each compound was reported by estimating the EC50.

[1] = Formation of glutathione adducts (GSH reactivity, HPLC-UV); type: in vitro ADME; conditions: 10 mM GSH, 20 micromolar test article, pH 7.4, 37° C.
Protocol: Generation of non-specific thiol adducts can be measured by assaying reactivity of compounds with GSH. Formation of GSH adducts was measured by incubating GSH (10 mM) in 100 mM Phosphate Buffer pH 7.4 with test article at 20 micromolar final concentration. Briefly, 600 microliters of phosphate buffer pH 7.4 was added in a glass vial with 200 microliters of 100 micromolar test article in DMSO. Samples were warmed at 37° C. for 10 minutes and the reaction was initiated by the addition of 200 microliters of 50 mM reduced GSH in phosphate buffer pH 7.4 and incubated at 37° C. At various time points (0.5 min, 5 min, 15 min, 30 min, 60 min, 120 min and 180 min) 50 microliter aliquots were placed into an injection vial equipped with an insert and mixed with 50 microliters of 1% formic acid in 99% Methanol. Vials were loaded onto the HPLC injection tray and each sample was injected onto a C18 column (ACE 3 C18, 4.6×50 mm column) and both the parent and product were monitored by UV absorbance at 254 nm on an Agilent Technologies 1100 series HPLC. Peaks were integrated and the percentage of product present calculated as the percent of the total peak area on the parent and product at 60 minutes.

[2] = test system: TMD-8 human activated B cell diffuse large B cell lymphoma cells; test: TMD-8 survival assay (Cell Titer-Glo); type: cell-based; conditions: TMD8, TMD-8 cells, 72 h
Protocol: TMD-8 human activated B cell diffuse large B cell lymphoma cells were seeded in 96-well plates at a density of 20,000 cells/well in HyClone RPMI supplemented with 10% FBS (Fisher)/1% Penicillin/Streptomycin (HyClone) and incubated at 37° C., 5% CO2. Cells were treated in triplicate with 1,000 nM or 100 nM curves of compounds for 72h. Cell survival was measured by Cell Titer-Glo Luminescent Assay (Promega). EC50 values (50% proliferation in the presence of compound as compared to vehicle treated controls) were calculated from dose response compound curves using GraphPad Prism Software.

splenocytes = test: Splenic cell proliferation assay (anti-IgM stimulated, Cell Titer-Glo); type: cell-based, mouse (CD1); conditions: Splenocyte; mouse splenocytes, 2.5 μg/ml anti-IgM F(ab')2, 72 h; read-out: Spleen cell EC50
Protocol: Proliferation of splenocytes in response to anti-IgM can be blocked by inhibition of BTK. Splenocytes were obtained from 6 week old male CD1 mice (Charles River Laboratories Inc.). Mouse spleens were manually disrupted in PBS and filtered using a 70um cell strainer followed by ammonium chloride red blood cell lysis. Cells were washed, resuspended in Splenocyte Medium (HyClone RPMI supplemented with 10% heat-inactivated FBS, 0.5X non-essential amino acids, 10 mM HEPES, 50 μM beta mercaptoethanol) and incubated at 37° C., 5% CO2 for 2h to remove adherent cells. Suspension cells were seeded in 96 well plates at 50,000 cells per well and incubated at 37° C., 5% CO2 for 1h. Splenocytes were pre-treated in triplicate with 10,000 nM curves of Formula 1 compounds for 1h, followed by stimulation of cell proliferation with 2.5 μg/ml anti-IgM
F(ab′)2 (Jackson ImmunoResearch) for 72 h. Cell proliferation was measured by Cell Titer-Glo Luminescent Assay (Promega). EC50 values (50% proliferation in the presence of compound as compared to vehicle treated controls) were calculated from dose response compound curves using GraphPad Prism Software.

[3] = Mouse plasma pharmacokinetics; type: in vivo, mouse (CD-1); conditions: male, CD-1, mouse, mice
Protocol: Plasma pharmacokinetic studies were conducted in CD1 mice to compare the plasma exposure following oral and intravenous administration of the free-base form of each compound to mice and to calculate bioavailability. Male CD-1 mice (25-30 g on delivery; Charles River) were used for mouse PK studies. The mice were housed 3 per cage in a room under controlled conditions of temperature ([…]) and humidity (40-70%), with a 12 h dark/light cycle. The animals were acclimated for a minimum of 3 days prior to use and received standard rodent chow (Charles River) and municipal tap water ad libitum. Nine animals were used per study, they were dosed PO or IV and bled from the mandibular vein, 2 to 3 times per animal at the following time points; pre dose, 15 and 30 min, 1, 2, 3, 5, 7 and 24 h (0.1 mL whole blood /time point; composite PK). Blood was collected into microvette K3E tubes ([…]) at RT and then centrifuged at 5,000 RPM for 2 min at 4° C. in order to separate plasma. Isolated plasma (0.015 mL/time point) was pipetted into 96 well plates (Canadian Life Science) which were stored at minus 20° C. until analysis (2 duplicate plates per study).
Concentrations of compound in rodent plasma samples were determined by LC-MS-MS. Two standard curves containing 8 points each were prepared by spiking in methanol or plasma with a solution containing the test article at a defined concentration. The range of final compound concentration in the standard curve was 0 to 1 μg/mL. Three sets of quality control (QC) samples in plasma at low, medium and high concentration within the standard curve range were also prepared. For analysis, the compound was extracted using protein precipitation extraction procedure. Briefly, a three-fold volume of methanol containing an internal standard was added to the plasma and standard curve solution samples and then incubated at 4° C. for 5 minutes. The plates were centrifuged for 30 minutes at 4° C. at 4000 rpm and the resulting supernatant was transferred to a 96-well propylene plates and sealed with cover to avoid sample evaporation. Ten μL aliquots of extracted samples were injected using a 96-well plate autosampler held at 4° C. onto a ACE C18 50×4.6 mm, 3 um HPLC column held at 30° C. Plasma derived parent compound was eluted using the following conditions: pump flow rate was set at 1 mL/min for a five minutes chromatographic method using a 3 min gradient elution from 20% solvent A (0.1% formic acid in water) and 80% solvent B (0.1% Formic Acid in Methanol) to 10% solvent A and 90% solvent B. The method was followed by 1 min column wash at 95% solvent B and 1 min column re-equilibration back to 80% solvent B. Under these conditions the compound was eluted after 1.8 minutes. For LC-MS-MS compound detection, the curtain gas was set at 10, collision gas was set at 8, ion spray voltage was set at 4500, temperature was set at 500, ion source gas 1 was set at 40 and ion source gas 2 was set at 60. Using a positive ionization mode, the MRM transition monitored was set at […]. Under these conditions, standard curves were linear up to 2000 ng/mL, the lower limit of quantification was generally at 10 ng/mL.
The area under the curve (AUCtot and AUClast), the maximum plasma concentration (Cmax) and time (Tmax), and terminal half life (T1/2), clearance and volume of distribution were calculated by regression analysis using Kinetica version 5.0 (Thermo Fisher Scientific) using a Non-Compartmental Extravascular/IV Bolus analysis model.

| Structure (SMILES) | IC50 (human BTK) [nM] | GSH Reactivity GSH Conjugate at 60 minutes [1] | AUC ([3]; intravenous 3 mg/kg, free base, read-out: Intravenous AUC) [ng·h/mL] | bioavailability ([3]; oral 10 mg/kg vs intravenous 3 mg/kg) [%] | Cmax ([3]; oral 10 mg/kg, free base) [ng/mL] | AUC ([3]; oral 10 mg/kg, free base, read-out: Oral AUC) [ng·h/mL] | EC50 [2] [nM] | EC50 (splenocytes) [nM] |
| --- | --- | --- | --- | --- | --- | --- | --- | --- |
| C=CC(=O)N[C@H]1C[C@@H](n2nc(-c3ccc(Oc4ccc(F)cc4F)cc3)c3c(N)ncnc32)C1 [Compound 3] | 10 | 12.6 % of total Peaks | – | – | – | – | 6.5 | 0.9 |
| CC#CC(=O)N(C)[C@H]1C[C@@H](n2nc(-c3ccc(Oc4ccccc4)cc3)c3c(N)ncnc32)C1 [Compound 4] | 1 | 8.4 % of total Peaks | – | – | – | – | 5.4 | 0.8 |
| C=CC(=O)N(C)[C@H]1C[C@@H](n2nc(-c3ccc(Oc4ccccc4)cc3)c3c(N)ncnc32)C1 [Compound 5] | 0.7 | 28.9 % of total Peaks | – | – | – | – | 1.9 | 0.5 |

Now from value to compound, other results behind:

| IC50 (human BTK) [nM] | GSH Reactivity GSH Conjugate at 60 minutes [1] | AUC ([3]; intravenous 3 mg/kg, free base, read-out: Intravenous AUC) [ng·h/mL] | bioavailability ([3]; oral 10 mg/kg vs intravenous 3 mg/kg) [%] | Cmax ([3]; oral 10 mg/kg, free base) [ng/mL] | AUC ([3]; oral 10 mg/kg, free base, read-out: Oral AUC) [ng·h/mL] | Structure (SMILES) | EC50 [2] [nM] | EC50 (splenocytes) [nM] |
| --- | --- | --- | --- | --- | --- | --- | --- | --- |
| 3 | 12.6 % of total Peaks | – | – | – | – | C=CC(=O)N[C@H]1C[C@@H](n2nc(-c3ccc(Oc4ccccc4)cc3F)c3c(N)ncnc32)C1 [Compound 6] | 3 | 0.4 |
| 1 | 5.9 % of total Peaks | – | – | – | – | CC#CC(=O)N[C@H]1C[C@@H](n2nc(-c3ccc(Oc4ccccc4)cc3F)c3c(N)ncnc32)C1 [Compound 7] | 1.5 | 0.4 |
| – | 31.7 % of total Peaks | 1070 | 9.8 | 219 | 349 | C=CC(=O)N1CCC[C@@H](n2nc(-c3ccc(Oc4ccccc4)cc3)c3c(N)ncnc32)C1 [Reference, 1-((R)-3-(4-amino-3-(4-phenoxyphenyl)-1H-pyrazolo[3,4-d]pyrimidin-1-yl)piperidin-1-yl)prop-2-en-1-one, reference compound] | 2 | 0.4 |
